Results published in patent publication US20060178293A1, “Cardiotonic polypeptides” (priority 2003, published 2006).

System: isolated cardiomyocytes derived from adult rats
Settings: electrically stimulated; 0.35 μg/ml (FIG. 5)

NCCc1ccc(O)c(O)c1 [inotropin]
mechanical contractility (cell length changes), optically monitored: obvious increase in contractility
